According to patent US5407946A, “Pyrrolidine compounds which are useful as thromboxane AZ-inhibitors” (Adir et Compagnie, priority 1992, dated 1995):

What was measured:
TXA2 receptors [1] = target: T1, TXA2 receptors (Oryctolagus cuniculus, UniProt Q6WQI8); assay: Platelet aggregation induced by U46619 in rabbit platelet-rich plasma (PRP); format: cell-based; conditions: 37° C., antagonist added 3 min before U46619 (1.2 μM), read-out: IC50, concentration which induces 50% inhibition of the aggregation response induced by U46619
T1 construct: citrated platelet-rich plasma, U46619-induced aggregation
T1 sequence (Q6WQI8 1-233): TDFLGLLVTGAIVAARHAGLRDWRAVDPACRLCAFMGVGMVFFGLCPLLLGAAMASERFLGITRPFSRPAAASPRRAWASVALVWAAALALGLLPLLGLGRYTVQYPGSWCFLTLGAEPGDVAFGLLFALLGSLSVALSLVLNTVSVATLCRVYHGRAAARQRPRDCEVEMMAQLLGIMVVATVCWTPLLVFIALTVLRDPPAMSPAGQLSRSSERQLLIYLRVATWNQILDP
Experimental: The rabbits (2-3 kg) are anesthetized with sodium pentobarbital (30 mg/kg i.v.). After cannulation of the left carotid artery, the blood is collected over sodium citrate (0.109 M) (1 vol. of citrate per 9 vol. of blood).
The plasma which is high in platelets (PRP) is obtained by centrifugation (20° C.) at 250 g for 20 minutes and the plasma which is low in platelets (PPP) by centrifugation at 1000 g (10 min). The number of platelets (PL) in the PRP is adjusted to between 300-350,000 pl/mm^3 by dilution with autologous PPP. The PRP is stored at room temperature up to the time of the test and is used within 4 hours following the collection. Platelet aggregation is performed at 37° C. in glass tubes siliconized by means of an aggregometer. The PRP and PLs are stirred at 1000 rpm (revolution per minute). In order to study the activity of the thromboxane antagonists, the PRP is incubated for 1 min at 37° C., and the antagonist is then added for a period of 3 min before adding the agonist U46619 (1.2 μM). The final volume of the cuvette is then 250 μl. The extent of platelet aggregation is determined by measuring the maximum amplitude of the aggregation plots and is expressed as a percentage of light transmission (% T). The activity of the antagonists is expressed as IC50, that is to say the concentration of the substance which induces 50% inhibition of the aggregation response induced by U46619.

thromboxane receptors = target: T2, thromboxane receptors (Cavia porcellus, UniProt A0A286Y4I8); assay: IC50 on the tracheal pressure in guinea pigs (bronchoconstriction induced by U46619 in vivo); conditions: guinea pig, iv, 5 min; anesthetized guinea pigs, antagonist injected 5 minutes before U46619 (2 μg/kg i.v.), jugular vein; read-out: IC50, antagonist dose which inhibits by 50% the increase in tracheal pressure caused by U46619
T2 construct: U46619 causes a bronchoconstriction which results in an increase in tracheal pressure; from tissue; host or cells: whole anesthetized guinea pig (in vivo, airways)
T2 sequence (A0A286Y4I8 1-347): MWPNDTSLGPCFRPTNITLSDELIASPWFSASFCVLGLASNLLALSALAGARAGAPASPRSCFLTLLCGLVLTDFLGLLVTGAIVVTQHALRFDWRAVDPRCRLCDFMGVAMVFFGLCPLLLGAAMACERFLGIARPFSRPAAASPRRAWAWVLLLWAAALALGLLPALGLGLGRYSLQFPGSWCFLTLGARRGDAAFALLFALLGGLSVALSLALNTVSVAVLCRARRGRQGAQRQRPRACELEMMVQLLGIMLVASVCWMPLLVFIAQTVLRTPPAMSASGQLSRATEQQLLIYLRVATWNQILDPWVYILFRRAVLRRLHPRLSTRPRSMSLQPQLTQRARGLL
Text: Male albino guinea pigs (350-400 g), subjected to an 18-hour water diet, are anesthetized with ethylcarbamate (1.25 g/kg i.p.). A catheter is introduced into the carotid artery in order to measure the blood pressure by means of a pressure cell. A second catheter is introduced introduced into the jugular vein and is used for injecting the pharmacological substances. The trachea is cannulated and the guinea pig is placed under assisted respiration by means of a respirator. The temperature of the animal is kept at 37° C. by means of a thermostated cover. A needle pricked into the tracheal cannula is connected to a pressure cell and allows the tracheal pressure to be recorded. The guinea pigs are pretreated with d-tubocurarine (1 mg/kg i.v.) and with indomethacin (10 mg/kg i.v.). Injected at a dose of 2 μg/kg i.v., U46619 causes a bronchoconstriction which results in an increase in tracheal pressure and induces an increase in blood pressure. The responses to U46619 are reversible and reproducible if the injections are performed every 10 minutes.
The antagonists of thromboxane receptors are injected 5 minutes before the injections of U46619. The antagonist dose which inhibits by 50% the increase in tracheal pressure caused by U46619 is determined (IC50).

TXA2 receptors [2] = target: T3, TXA2 receptors (Cavia porcellus, UniProt A0A286Y4I8); assay: Determination of the pA2 values on guinea pig trachea (contractions caused by U46619); format: cell-based; conditions: guinea pig tracheal rings, 37° C., agonist U46619 10^-9 M to 10^-5 M, antagonist contact 20 minutes; read-out: pA2 (negative logarithm of the concentration of antagonist in the presence of which twice the amount of agonist is required for the same effect) (converted)
T3 construct: the trachea is rapidly removed and then cut out into rings containing two cartilages; from tissue; host or cells: guinea pig trachea rings
T3 sequence (A0A286Y4I8 1-347): T2 sequence (A0A286Y4I8 1-347)
Experimental: 400-500-gram albino male guinea pigs were sacrificed by striking the nape of the neck and by pulling the neck. The throat is cut and the trachea is rapidly removed and then cut out into rings containing two cartilages. These rings are mounted between two hooks in cuvettes thermostated at 37° C., containing physiological saline (composition in mM: 118 NaCl; 25 NaHCO3; 10 glucose; 4.7 KCl; 1.25 CaCl2; 1.19 MgSO4; 1.14 KH2 PO4).
The physiological saline is bubbled with a mixture of 95% O2 -5% CO2. The bottom hook constitutes the fixed point while the upper hook is connected to an isometric force sensor. The tissues are placed under a basal tension of 3.5 grams. The pharmacological substances studied are prepared immediately before use. The drugs are solubilized in water or in dimethyl sulfoxide.
After mounting, the preparations are allowed to stand for 90 minutes, rinsings being carried out every 30 minutes. After readjusting the basal tension, a contraction generated by a single dose of agonist (U46619; 10^-5 M) is generated in order to stabilize subsequent contractions. After washing and returning to the base line, a first effect/concentration curve is produced by the addition of cumulative doses of U46619 (10^-9 M to 10^-5 M; the interval between the doses is a semilog). This first experiment makes it possible to calculate the effective concentration 50% (EC50) "control".
This EC50 is routinely calculated in the following manner: the tension values are first converted to percentages relative to the maximum effect, these percentages are then plotted on a graph with the percentages on the y-axis and the log(concentration) values on the x-axis. A linear regression is then performed on the points between 10% and 90% (which corresponds to the linear portion of the sigmoid curve). The concentration corresponding to half maximum effect (50%) can be easily calculated by means of the parameters of the straight line.
After washing and returning to the base line, the organ is placed in contact with the antagonist ([…]) for 20 minutes. A second effect/concentration curve is then produced in the presence of the antagonist and the "treated" EC50 can then be calculated. All the elements required for calculating the pA2 (competitive antagonism) or the pD2 (noncompetitive antagonism) are thus available.
The pA2 (which represents the negative logarithm of the concentration of antagonist in the presence of which twice the amount of agonist is required in order to obtain the same effect) is determined by plotting on a graph the log((L/l)-1) values relative to the log(concentration of antagonist), with L=effect in the presence of antagonist and 1=control effect. In this test, the pA2 values for the compounds of Examples 14 and 18 are as follows: […]

ED50 (thromboxane receptors) [mg/kg] | Kb (TXA2 receptors [2]) [µM] | Structure (SMILES) | IC50 (TXA2 receptors [1]) [µM]
0.11 |  | O=C(O)CC/C=C\C[C@@H]1CN(S(=O)(=O)c2ccc3ccccc3c2)C[C@@H]1c1ccccc1O (relative stereo) [Example 29] | 
2.28 |  | O=C(O)CCC/C=C\[C@@H]1CN(Cc2ccccc2)C[C@@H]1c1ccccc1O (relative stereo) [Example 13, (5Z) -6-[(3α,4α) -1-Benzyl-4-(2-hydroxyphenyl)pyrrolidin-3-yl]hex-5-enoic acid] | 
1.03 | 1.58 | O=C(O)CC/C=C\C[C@H]1CN(Cc2cccnc2)C[C@H]1c1ccccc1O (relative stereo) [Example 21, (4Z)-6-[(3α, 4α)-4-(2-hydroxyphenyl)-1-[(3-pyridyl)methyl]pyrrolidin-3-yl]hex-4-enoic acid] | 
0.1 | 0.2 | CC(C)C(=O)N1C[C@@H](C/C=C\CCC(=O)O)[C@@H](c2ccccc2O)C1 (relative stereo) [Example 19] | 
1.31 |  | CC(C)C(=O)N1C[C@@H](C/C=C\CCC(=O)O)[C@H](c2ccccc2O)C1 (relative stereo) [Example 20, (4Z)-6-[(3α,4β)-1-Isobutyroyl-4-(2-hydroxyphenyl)pyrrolidin-3-yl]hex-4-enoic acid] | 
0.03 |  | O=C(O)CC/C=C\C[C@@H]1CN(S(=O)(=O)c2cccc3cccnc23)C[C@@H]1c1ccccc1O (relative stereo) [Example 27, (4Z)-6-[(3α,4α)-1-[(Quinol-8-yl)sulfonyl]-4-(2-hydroxyphenyl)pyrrolidin-3-yl]hex-4-enoic acid] | 
0.43 | 0.02 | CCCCCCC(=O)N1C[C@@H](C/C=C\CCC(=O)O)[C@@H](c2ccccc2O)C1 (relative stereo) [Example 23, (4Z)-6-[(3α,4α)-1-Heptanoyl-4-(2-hydroxyphenyl)pyrrolidin-3-yl]hex-4-enoic acid] | 
0.177 |  | O=C(O)CC/C=C\C[C@@H]1CN(Cc2ccccc2)C[C@@H]1c1ccccc1O (relative stereo) [Example 15, (4Z) -6[(3α,4α) -1-Benzyl-4-(2-hydroxyphenyl)pyrrolidin-3-yl]hex-4-enoic acid] | 
1.02 | 0.282 | O=C(O)CCC/C=C\C[C@@H]1CN(Cc2ccccc2)C[C@@H]1c1ccccc1O (relative stereo) [Example 14, (5Z)-7-[(3α,4α)-1-Benzyl-4-(2-hydroxyphenyl)pyrrolidin-3-yl]hept-5-enoic acid] | 

Structure (SMILES) | ED50 (thromboxane receptors) [mg/kg] | Kb (TXA2 receptors [2]) [µM] | IC50 (TXA2 receptors [1]) [µM]
O=C(O)CC/C=C\C[C@@H]1CN(S(=O)(=O)c2cccc3cnccc23)C[C@H]1c1ccccc1O (relative stereo) [Example 25, (4Z)-6-[(3α,4β)-1-[(Isoquinol-5-yl)sulfonyl]-4-(2-hydroxyphenyl)pyrrolidin-3-yl]hex-4-enoic acid] | 0.06 |  | 5
O=C(O)CCC/C=C\C[C@@H]1CN(S(=O)(=O)c2cccc3cnccc23)C[C@@H]1c1ccccc1O (relative stereo) [Example 30, (5Z-7-[(3α,4α)-1-[(Isoquinolyl-5-yl)sulfonyl]-4-(2-hydroxyphenyl)pyrrolidin-3-yl)]hept-5-enoic acid] | 0.08 |  | 0.5
O=C(O)CC/C=C\C[C@@H]1CN(S(=O)(=O)c2cccc3cnccc23)C[C@@H]1c1ccccc1O (relative stereo) [Example 24, (4Z)-6-[(3α,4α)-1-[(Isoquinol-5-yl)sulfonyl]-4-(2-hydroxyphenyl)pyrrolidin-3-yl]hex-4-enoic acid] | 0.01 | 0.000316 | 0.8
O=C(O)CC/C=C\C[C@@H]1CN(C(=O)Nc2ccccc2)C[C@@H]1c1ccccc1O (relative stereo) [Example 22, (4Z)-6-[(3α,4α)-1-Phenylaminocarbonyl-4-(2-hydroxyphenyl)pyrrolidin-3-yl]hex-4-enoic acid] | 1.21 |  | 4
O=C(O)CC/C=C\C[C@@H]1CN(S(=O)(=O)c2cccc3ccccc23)C[C@@H]1c1ccccc1O (relative stereo) [Example 28] | 0.01 | 0.00158 | 0.5
O=C(O)CC/C=C\C[C@@H]1CN(S(=O)(=O)c2ccc(Cl)cc2)C[C@H]1c1ccccc1O (relative stereo) [Example 18, (4Z)-6-[(3α, 4β)-1-(4-Chlorophenylsulfonyl)-4-(2-hydroxyphenyl)pyrrolidin-3-yl]hex-4-enoic acid] | 0.03 | 0.00794 | 5.4
